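Method: 48-hour compound exposure of cells in 96-well plates, five concentrations, linear interpolation of endpoints. At the GI50, growth is halved.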 Activity calls are given as the source filed them. Rule as the data show it: active = GI50 up to about 1.1 µM and inactive = higher.
How the values were obtained:
Experiment in all cases: DTP human tumour cell line panel, 48 h
OVCAR-5 = system: OVCAR-5
HOP-92 = system: HOP-92
COLO 205 = system: COLO 205
OVCAR-8 = system: OVCAR-8
M14 = system: M14
K562 = system: K562
SN12C = system: SN12C
OVCAR-4 = system: OVCAR-4
SNB-75 = system: SNB-75
LOX IMVI = system: LOX IMVI
UO-31 = system: UO-31
SK-MEL-28 = system: SK-MEL-28
NCI-H522 = system: NCI-H522
SW-620 = system: SW-620
RPMI-8226 = system: RPMI-8226
HL-60 = system: HL-60
ACHN = system: ACHN
786-0 = system: 786-0
SK-OV-3 = system: SK-OV-3

Measured: GI50

Cc1ccc(/C=N/n2c(Cc3ccccc3)n[nH]c2=O)cc1
inactive: OVCAR-5 > 100 µM | HOP-92 37 µM | COLO 205 > 100 µM | OVCAR-8 > 100 µM | M14 > 100 µM | K562 > 100 µM | SN12C > 100 µM | OVCAR-4 > 100 µM | SNB-75 40.2 µM | LOX IMVI > 100 µM | UO-31 > 100 µM | SK-MEL-28 > 100 µM | NCI-H522 > 100 µM | SW-620 > 100 µM | RPMI-8226 > 100 µM | HL-60 > 100 µM | ACHN > 100 µM | 786-0 80.9 µM

O=C1NCCCC12CCCNC2=O
inactive: COLO 205 > 100 µM | OVCAR-8 > 100 µM | M14 > 100 µM | K562 > 100 µM | SN12C > 100 µM | LOX IMVI > 100 µM | UO-31 > 100 µM | SK-MEL-28 > 100 µM | SK-OV-3 > 100 µM | NCI-H522 > 100 µM | SW-620 > 100 µM | RPMI-8226 > 100 µM | HL-60 > 100 µM | ACHN > 100 µM | 786-0 > 100 µM

CC(C)COC(=O)N1N=NC2C3CC(=O)C(O3)C21 (centres undefined)
inactive: OVCAR-5 > 100 µM | HOP-92 > 100 µM | COLO 205 > 100 µM | OVCAR-8 > 100 µM | M14 > 100 µM | K562 > 100 µM | SN12C > 100 µM | OVCAR-4 > 100 µM | SNB-75 > 100 µM | LOX IMVI > 100 µM | UO-31 > 100 µM | SK-MEL-28 > 100 µM | SK-OV-3 > 100 µM | NCI-H522 > 100 µM | SW-620 > 100 µM | RPMI-8226 > 100 µM | ACHN > 100 µM | 786-0 > 100 µM

N#Cc1ccc([N+](=O)[O-])cc1NC(N)=S
inactive: OVCAR-5 > 100 µM | HOP-92 > 100 µM | COLO 205 > 100 µM | OVCAR-8 > 100 µM | M14 > 100 µM | SN12C > 100 µM | SNB-75 > 100 µM | UO-31 > 100 µM | SK-MEL-28 > 100 µM | SK-OV-3 > 100 µM | NCI-H522 > 100 µM | SW-620 > 100 µM | RPMI-8226 > 100 µM

CC1CCN(c2cc(-c3cc4ccccc4o3)oc(=O)c2C#N)CC1
inactive: OVCAR-5 > 100 µM | HOP-92 5.9 µM | COLO 205 > 100 µM | OVCAR-8 > 100 µM | M14 > 100 µM | K562 > 100 µM | SN12C > 100 µM | OVCAR-4 18.8 µM | SNB-75 > 100 µM | LOX IMVI > 100 µM | UO-31 > 100 µM | SK-MEL-28 > 100 µM | SW-620 > 100 µM | RPMI-8226 > 100 µM | HL-60 65.8 µM | ACHN > 100 µM

Cc1ccc2c(c1-c1ccccc1)C(=O)OC2
inactive: COLO 205 > 100 µM | OVCAR-8 > 100 µM | M14 > 100 µM | K562 56.1 µM | SN12C > 100 µM | OVCAR-4 > 100 µM | SNB-75 > 100 µM | UO-31 75 µM | SK-MEL-28 > 100 µM | SK-OV-3 > 100 µM | NCI-H522 > 100 µM | SW-620 > 100 µM | RPMI-8226 > 100 µM | HL-60 > 100 µM | ACHN > 100 µM | 786-0 > 100 µM

CC/C=C\C/C=C\C/C=C\CCCCCCCC(=O)OCC
inactive: OVCAR-5 > 100 µM | HOP-92 > 100 µM | COLO 205 > 100 µM | OVCAR-8 > 100 µM | M14 > 100 µM | K562 > 100 µM | SN12C > 100 µM | OVCAR-4 > 100 µM | SNB-75 > 100 µM | LOX IMVI 42.6 µM | UO-31 > 100 µM | SK-MEL-28 > 100 µM | SK-OV-3 > 100 µM | SW-620 > 100 µM | RPMI-8226 70.6 µM | HL-60 > 100 µM | ACHN > 100 µM | 786-0 > 100 µM

CC(=O)OCc1nnn2c1C(OC(C)=O)CC2 (centres undefined)
inactive: OVCAR-5 > 100 µM | HOP-92 > 100 µM | COLO 205 > 100 µM | OVCAR-8 > 100 µM | M14 > 100 µM | K562 > 100 µM | SN12C > 100 µM | OVCAR-4 > 100 µM | SNB-75 20.1 µM | UO-31 > 100 µM | SK-MEL-28 > 100 µM | SK-OV-3 > 100 µM | NCI-H522 > 100 µM | SW-620 > 100 µM | RPMI-8226 > 100 µM | ACHN > 100 µM | 786-0 > 100 µM

CC(=O)Nc1ccc(C(=O)N2N=C(C)/C(=C/c3cccc(O)c3)C2=O)cc1
inactive: OVCAR-5 > 100 µM | COLO 205 > 100 µM | OVCAR-8 > 100 µM | M14 > 100 µM | K562 > 100 µM | SN12C > 100 µM | OVCAR-4 > 100 µM | SNB-75 > 100 µM | LOX IMVI > 100 µM | UO-31 > 100 µM | SK-MEL-28 > 100 µM | NCI-H522 > 100 µM | SW-620 > 100 µM | ACHN > 100 µM | 786-0 > 100 µM

C#CCOCn1cnc2ncnc(Cl)c21
inactive: OVCAR-5 > 100 µM | HOP-92 > 100 µM | COLO 205 > 100 µM | OVCAR-8 > 100 µM | M14 > 100 µM | K562 > 100 µM | SN12C > 100 µM | OVCAR-4 > 100 µM | SNB-75 > 100 µM | LOX IMVI > 100 µM | UO-31 > 100 µM | SK-MEL-28 > 100 µM | SK-OV-3 > 100 µM | NCI-H522 > 100 µM | SW-620 > 100 µM | RPMI-8226 > 100 µM | ACHN > 100 µM | 786-0 > 100 µM

COC(=O)C1=CC2OC1(C)CCC2=O (centres undefined)
inactive: OVCAR-5 > 100 µM | COLO 205 > 100 µM | OVCAR-8 50.1 µM | M14 44.6 µM | K562 62.4 µM | SN12C > 100 µM | OVCAR-4 > 100 µM | SNB-75 > 100 µM | LOX IMVI > 100 µM | UO-31 > 100 µM | SK-MEL-28 > 100 µM | SK-OV-3 > 100 µM | NCI-H522 48.1 µM | SW-620 74.6 µM | RPMI-8226 47.6 µM | HL-60 26.9 µM | ACHN > 100 µM | 786-0 > 100 µM

C/C(=N\NC(=S)Nc1ccc(C(=O)O)cc1)c1ccccn1
inactive: OVCAR-5 21.3 µM | HOP-92 43.6 µM | COLO 205 18.4 µM | OVCAR-8 16 µM | M14 15.1 µM | K562 40.1 µM | SN12C 19.7 µM | OVCAR-4 15.1 µM | SNB-75 20.5 µM | LOX IMVI 16.7 µM | UO-31 11.6 µM | SK-MEL-28 44 µM | SW-620 19.2 µM | RPMI-8226 29.8 µM | HL-60 20.7 µM | ACHN 16.7 µM | 786-0 17.4 µM

c1ccc(C2N=C(c3ccccn3)C(c3ccccn3)=NC2c2ccccc2)cc1 (centres undefined)
inactive: OVCAR-5 > 100 µM | HOP-92 > 100 µM | COLO 205 > 100 µM | OVCAR-8 > 100 µM | M14 > 100 µM | K562 > 100 µM | OVCAR-4 > 100 µM | LOX IMVI > 100 µM | UO-31 > 100 µM | SK-MEL-28 > 100 µM | SK-OV-3 > 100 µM | NCI-H522 > 100 µM | SW-620 > 100 µM | RPMI-8226 > 100 µM | HL-60 > 100 µM | ACHN > 100 µM | 786-0 > 100 µM

CCOc1cccc2[s+]snc12
inactive: OVCAR-5 > 100 µM | COLO 205 > 100 µM | OVCAR-8 54.3 µM | M14 > 100 µM | K562 39.8 µM | SN12C > 100 µM | OVCAR-4 58.5 µM | SNB-75 25.6 µM | LOX IMVI 50.1 µM | UO-31 37.3 µM | SK-MEL-28 > 100 µM | SK-OV-3 > 100 µM | NCI-H522 27.8 µM | SW-620 > 100 µM | HL-60 30.2 µM | ACHN > 100 µM | 786-0 > 100 µM

CCOC(=O)Nc1ccc(S(=O)(=O)OC)cc1.CCOC(=O)Nc1ccc(S(=O)(=O)OC)cc1.Cc1cn(C2CC(O)C(CO)O2)c(=O)[nH]c1=O
inactive: OVCAR-5 > 100 µM | HOP-92 > 100 µM | COLO 205 > 100 µM | OVCAR-8 > 100 µM | M14 > 100 µM | K562 34.2 µM | SN12C > 100 µM | OVCAR-4 86.3 µM | SNB-75 > 100 µM | LOX IMVI 18.3 µM | UO-31 > 100 µM | SK-MEL-28 > 100 µM | SK-OV-3 > 100 µM | SW-620 19.4 µM | RPMI-8226 36.5 µM | HL-60 91.8 µM | ACHN > 100 µM | 786-0 35.4 µM

Cc1ccc(NC(=O)c2cc3ccccc3c(/N=N/c3cc(S(=O)(=O)O)ccc3O)c2O)c(C)c1
inactive: OVCAR-5 16.2 µM | HOP-92 21.2 µM | COLO 205 36.8 µM | OVCAR-8 17.5 µM | M14 7.43 µM | K562 23 µM | SN12C 41.7 µM | OVCAR-4 12.7 µM | SNB-75 23.3 µM | LOX IMVI 32.4 µM | UO-31 4.44 µM | SK-MEL-28 18.7 µM | SK-OV-3 20 µM | NCI-H522 25.4 µM | SW-620 10.9 µM | RPMI-8226 15 µM | ACHN 5.97 µM | 786-0 16.2 µM

Reference: ChEMBL document CHEMBL1201862, “PubChem BioAssay data set” (2004)
